Patent publication US11173137B2, “Compositions and methods to modulate chloride ion channel activity” (The Board of Trustees of the Leland Stanford Junior …, priority 2018, dated 2021)
Several values for one entry are separate records, joined by “and”; a condition that tells them apart may be missing. Identical values can stand only once. Like-named read-outs stand apart in the source and are kept apart here.

Tests used:
CLC-2 [1] = target: T1, CLC-2 (Homo sapiens (Human), UniProt P51788); assay: IonWorks Barracuda automated patch-clamp electrophysiology, human CLC-2 cell line; assay type: cell-based; details: for % inhibition at the concentration listed (in parenthesis): CLC-2, at the concentration listed in the IC50 cell, negative = increase in peak current
Description: FIG. 8, panels A and B depict graphically the Selectivity between CLC-1 and CLC-2. […]

CLC-1 = CLC-1 (Homo sapiens (Human), UniProt P35523); assay: IonWorks Barracuda automated patch-clamp electrophysiology, CLC-1; assay type: cell-based; details: for IC50: Table 2
Description: If the IC50 was greater than the highest concentration tested, this concentration is listed along with the percent inhibition at this concentration (in parenthesis).
FIG. 8, panels A and B depict graphically the Selectivity between CLC-1 and CLC-2. […] Data points represent the mean current block at 16 different FA44 concentrations (n=4-8), using the IonWorks™ Barracuda. […] Panel B depicts a summary graph showing the mean inhibition of CLC-1 (left bar) or CLC-2 (right bar) current at 30 μM, illustrating the improvement in both selectivity and potency from the hit compound MCFA to the exemplary compound FA44.

CLC-2 [2] = target: T1, CLC-2; details: cited from earlier work
[3] = n = 4 cells, four concentrations of each compound, IonWorks Barracuda, read-out: IC50 (μM) against CLC-2
[4] = Table 2, read-out: IC50 (CLC-2)

T1 sequence (P51788 whole entry): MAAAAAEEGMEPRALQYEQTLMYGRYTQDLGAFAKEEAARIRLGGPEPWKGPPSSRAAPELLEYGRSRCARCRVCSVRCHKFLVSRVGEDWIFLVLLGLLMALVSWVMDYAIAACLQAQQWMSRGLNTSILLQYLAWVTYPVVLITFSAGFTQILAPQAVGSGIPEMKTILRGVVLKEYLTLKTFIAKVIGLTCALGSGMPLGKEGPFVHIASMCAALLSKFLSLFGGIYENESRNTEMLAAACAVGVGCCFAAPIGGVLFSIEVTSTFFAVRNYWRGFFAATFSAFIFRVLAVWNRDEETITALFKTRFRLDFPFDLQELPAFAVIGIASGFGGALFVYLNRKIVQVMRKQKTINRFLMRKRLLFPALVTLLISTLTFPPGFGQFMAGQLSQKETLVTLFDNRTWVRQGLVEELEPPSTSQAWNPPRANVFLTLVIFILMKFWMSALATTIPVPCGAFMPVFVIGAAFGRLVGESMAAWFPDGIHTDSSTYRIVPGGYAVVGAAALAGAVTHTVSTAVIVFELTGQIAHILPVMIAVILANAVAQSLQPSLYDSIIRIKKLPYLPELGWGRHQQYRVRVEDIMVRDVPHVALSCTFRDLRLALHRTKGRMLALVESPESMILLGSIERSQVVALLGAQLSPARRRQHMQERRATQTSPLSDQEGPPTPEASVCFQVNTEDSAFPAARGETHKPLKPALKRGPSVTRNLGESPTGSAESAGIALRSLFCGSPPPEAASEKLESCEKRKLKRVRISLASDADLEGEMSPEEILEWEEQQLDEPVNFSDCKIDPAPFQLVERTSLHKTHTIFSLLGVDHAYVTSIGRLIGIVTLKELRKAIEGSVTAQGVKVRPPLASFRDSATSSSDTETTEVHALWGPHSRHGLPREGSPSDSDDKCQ
Chain of CLC-1 (P35523 whole entry): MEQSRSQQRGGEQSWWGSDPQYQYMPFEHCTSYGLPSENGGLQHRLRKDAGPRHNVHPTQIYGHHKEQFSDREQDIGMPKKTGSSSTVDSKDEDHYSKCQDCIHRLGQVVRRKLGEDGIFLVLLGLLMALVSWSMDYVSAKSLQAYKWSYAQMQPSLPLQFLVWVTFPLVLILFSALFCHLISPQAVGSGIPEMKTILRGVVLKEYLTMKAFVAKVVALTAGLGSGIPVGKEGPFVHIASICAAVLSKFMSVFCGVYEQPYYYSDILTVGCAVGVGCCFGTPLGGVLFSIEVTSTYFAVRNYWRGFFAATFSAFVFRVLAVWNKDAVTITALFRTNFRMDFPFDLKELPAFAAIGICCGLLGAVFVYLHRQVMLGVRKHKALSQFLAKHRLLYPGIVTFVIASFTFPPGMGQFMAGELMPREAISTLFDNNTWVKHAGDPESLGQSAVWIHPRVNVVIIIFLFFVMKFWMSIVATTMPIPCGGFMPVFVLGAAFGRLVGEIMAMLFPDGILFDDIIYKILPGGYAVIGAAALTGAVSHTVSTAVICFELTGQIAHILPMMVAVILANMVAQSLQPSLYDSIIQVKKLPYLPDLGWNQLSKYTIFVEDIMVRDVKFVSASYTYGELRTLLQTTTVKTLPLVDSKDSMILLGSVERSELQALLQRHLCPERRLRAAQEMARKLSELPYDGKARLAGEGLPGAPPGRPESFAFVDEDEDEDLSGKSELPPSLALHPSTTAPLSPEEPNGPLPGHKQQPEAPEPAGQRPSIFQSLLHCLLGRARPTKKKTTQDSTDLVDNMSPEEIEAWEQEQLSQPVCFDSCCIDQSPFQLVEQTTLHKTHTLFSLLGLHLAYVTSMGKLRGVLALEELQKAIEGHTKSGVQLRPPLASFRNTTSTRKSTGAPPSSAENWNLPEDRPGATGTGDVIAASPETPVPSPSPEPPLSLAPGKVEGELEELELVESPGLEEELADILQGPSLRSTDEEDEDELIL

Row | SMILES | % inhibition at the concentration listed (in parenthesis) (CLC-2 [1]) | IC50 (CLC-2 [1]; [3]) | other results
1 | O=C(O)c1ccccc1Nc1ccc(Cl)cc1Cl [AK2-200A] | (13%) | > 120 µM | 
2 | O=C(O)c1ccccc1Nc1ccc(Cl)c(Cl)c1 [AK2-200B] | (12%) | > 120 µM | 
3 | Cc1cccc(Nc2ccccc2C(=O)O)c1Cl [AK2-200C] | (43%) | > 120 µM | 
4 | O=C(O)c1ccccc1Nc1c(Cl)cccc1Cl [AK2-209A] |  | 22.1 µM | 
5 | Cc1ccc(Cl)c(Nc2ccccc2C(=O)O)c1 [AK2-214A] | (48%) | > 120 µM | 
6 | O=C(O)c1ccccc1Nc1c(Cl)cc(Cl)cc1Cl [AK2-214B] | (22%) | > 120 µM | 
7 | O=C(O)c1ccccc1Nc1c(F)cccc1F [AK2-214C] | (41%) | > 120 µM | 
8 | O=C(O)c1ccccc1Nc1c(Cl)ccc(C(F)(F)F)c1Cl [AK2-270A] |  | 35.7 µM | 
9 | O=C(O)c1cccc2c1[nH]c1c(Cl)ccc(C(F)(F)F)c12 [AK2-270B] | (−48%) | > 120 µM | 
10 | Cc1ccc(C(=O)O)c(Nc2c(Cl)ccc(C)c2Cl)c1 [AK2-288A] |  | 24.7 µM | 
11 | Cc1cccc(C)c1Nc1ccccc1C(=O)O [AK2-289C] |  | 23.4 µM | 
12 | Cc1ccc(Cl)c(Nc2ccccc2-c2nnn[nH]2)c1Cl [AK3-89] |  | 33.4 µM | 
13 | Cc1ccc(Cl)c(Nc2cccc(C(=O)O)c2)c1Cl [AK3-97A] | (36%) | > 141 µM | 
14 | Cc1ccc(Cl)c(Nc2ccc(C(=O)O)cc2)c1Cl [AK3-97B] | (8%) | > 144 µM | 
15 | CCc1cccc(CC)c1Nc1ccccc1C(=O)O [AK3-97C] |  | 86.3 µM | 
16 | Cc1ccc(Cl)c2[nH]c3c(C(=O)O)ccc(F)c3c12 [AK3-98B] | (−16%) | > 69 µM | 
17 | O=C(O)c1ccccc1Nc1c(Cl)ccc(-c2ccccc2)c1Cl [AK3-100A] |  | 12.6 µM | 
18 | O=C(O)c1ccccc1Nc1c(Cl)ccc(O)c1Cl [AK3-102A] |  | 3.6 µM | 
19 | Cc1ccc(Cl)c(Nc2ccncc2C(=O)O)c1Cl [AK3-107B] | (16%) | > 42 µM | 
20 | Cc1ccc(Cl)c(Nc2cnccc2C(=O)O)c1Cl [AK3-108A] |  | 115 µM | 

Row | SMILES | % inhibition at the concentration listed (in parenthesis) (CLC-2 [1]) | IC50 (CLC-2 [1]; [3]) | other results
21 | Cc1ccc(Cl)c(Nc2ncccc2C(=O)O)c1Cl [AK3-108B] |  | 1.79 µM | IC50 (CLC-1): > 30 µM; percent inhibition of CLC-1 at highest concentration tested (in parenthesis) (CLC-1; at the concentration listed in the same cell): 5%; IC50 (CLC-2 [1]; [4]): 4 ± 0.7 µM
22 | Cc1ccc(Cl)c(Nc2ccccc2P(=O)(O)O)c1Cl [AK3-118] | (6%) | > 195 µM | 
23 | CCOP(=O)(O)c1ccccc1Nc1c(Cl)ccc(C)c1Cl [AK3-119] | (41%) | > 354 µM | 
24 | Cc1ccc(Cl)c(Nc2ccccc2C(N)=O)c1Cl [AK3-124] |  | 42.4 µM | 
25 | NC(=O)c1ccccc1COc1ccc(Cl)c(Nc2ccccc2C(=O)O)c1Cl [AK3-225] | (0%) | > 120 µM | 
26 | NC(=O)c1cccc(COc2ccc(Cl)c(Nc3ccccc3C(=O)O)c2Cl)c1 [AK3-226] | (5%) | > 120 µM | 
27 | CC(=O)Nc1cccc(COc2ccc(Cl)c(Nc3ccccc3C(=O)O)c2Cl)c1 [AK3-227] |  | 81.9 µM | 
28 | O=C(O)c1cccc(COc2ccc(Cl)c(Nc3ccccc3C(=O)O)c2Cl)c1 [AK3-239] |  | 17.9 µM | 
29 | O=C(O)c1cccc2c1[nH]c1c(Cl)ccc(OCc3ccccc3)c12 [AK3-251] | (5%) | > 120 µM | 
30 | O=C(O)c1ccccc1Nc1c(Cl)ccc(OCc2ccccc2F)c1Cl [AK3-261] |  | 1.16 µM | 
31 | O=C(CCCC[C@@H]1SC[C@@H]2NC(=O)N[C@@H]21)NCCOCCOCCOCCOCCC(=O)NCCOc1ccc(Cl)c(Nc2ccccc2C(=O)O)c1Cl [AK3-294] |  | 77.1 µM | 
32 | O=C(O)c1c2ccccc2cc2ccccc12 [Compound 9-AC] |  |  | potency of previously reported small-molecule inhibitors of CLC-2 (CLC-2 [2]): mM range
33 | O=S(=O)(O)c1cc(N=C=S)ccc1C=Cc1ccc(N=C=S)cc1S(=O)(=O)O [DIDS] |  |  | potency of previously reported small-molecule inhibitors of CLC-2 (CLC-2 [2]): mM range
34 | O=C(O)c1ccccc1Nc1ccccc1 [DPC, reference compound] | (27%) | > 312 µM | potency of previously reported small-molecule inhibitors of CLC-2 (CLC-2 [2]): mM range
35 | Cc1cccc(COc2ccc(Cl)c(Nc3ccccc3C(=O)O)c2Cl)c1 [EEGI-054] |  | 7.93 µM | 
36 | Cc1ccc(COc2ccc(Cl)c(Nc3ccccc3C(=O)O)c2Cl)cc1 [EEGI-056] |  | 15.8 µM | 
37 | O=C(O)c1ccccc1Nc1c(Cl)ccc(OCCc2ccccc2)c1Cl [EEGI-060] |  | 7.32 µM | 
38 | Cc1ccc(Cl)c(Nc2ccccc2C(=O)O)c1Cl [MCFA, meclofenamate, reference compound] |  | 14 µM and 13.9 µM | IC50 (CLC-1): 60 ± 9 µM; IC50 (CLC-2 [1]; [4]): 8.7 ± 0.3 µM
39 | O=C(O)c1cccnc1Nc1cccc(C(F)(F)F)c1 [NFA, reference compound] | (0%) | > 120 µM | 
40 | O=C(O)c1cc([N+](=O)[O-])ccc1NCCCc1ccccc1 [NPPB] |  |  | potency of previously reported small-molecule inhibitors of CLC-2 (CLC-2 [2]): mM range

Continued, in another order:

Row | % inhibition at the concentration listed (in parenthesis) (CLC-2 [1]) | IC50 (CLC-2 [1]; [3]) | SMILES | other results
41 | (23%) | > 120 µM | O=C(O)c1ccccc1Nc1cc(Cl)ccc1Cl [AK2-209B] | 
42 | (28%) | > 120 µM | Cc1ccc(Cl)c(Nc2ccccc2OS(=O)(=O)O)c1Cl [AK2-262] | 
43 | (37%) | > 102 µM | Cc1ccc(Cl)c(Nc2cccc(C)c2C(=O)O)c1Cl [AK2-288C] | 
44 |  | 9.86 µM | COc1ccc(Cl)c(Nc2ccccc2C(=O)O)c1Cl [AK2-289A] | 
45 |  | 7.16 µM | C=C(C)c1ccc(Cl)c(Nc2ccccc2C(=O)O)c1Cl [AK2-289B] | 
46 |  | 7.69 µM | CCc1ccc(Cl)c(Nc2ccccc2C(=O)O)c1Cl [AK2-292] | 
47 |  | 13.7 µM | Cc1ccc(Cl)c(Nc2cc(F)ccc2C(=O)O)c1Cl [AK3-98A] | 
48 |  | 2.04 µM | COCOc1ccc(Cl)c(Nc2ccccc2C(=O)O)c1Cl [AK3-99A] | 
49 |  | 2.98 µM | O=C(O)c1ccccc1Nc1c(Cl)ccc(OCC2CCCCC2)c1Cl [AK3-101A] | 
50 |  | 5.29 µM | COc1ccccc1-c1ccc(Cl)c(Nc2ccccc2C(=O)O)c1Cl [AK3-101B] | 
51 |  | 48.8 µM | O=C(O)c1ccccc1Nc1c(Cl)ccc(C2=CCCCC2)c1Cl [AK3-103B] | 
52 | (12%) | > 222 µM | Cc1ccc(Cl)c(Nc2cccnc2C(=O)O)c1Cl [AK3-107A] | 
53 | (15%) | > 120 µM | NC(=O)c1ccc(COc2ccc(Cl)c(Nc3ccccc3C(=O)O)c2Cl)cc1 [AK3-219] | 
54 | (4%) | > 120 µM | O=C(O)c1ccc(COc2ccc(Cl)c(Nc3ccccc3C(=O)O)c2Cl)cc1 [AK3-224] | 
55 |  | 67.8 µM | O=C(O)c1ccccc1COc1ccc(Cl)c(Nc2ccccc2C(=O)O)c1Cl [AK3-250] | 
56 | (7%) | > 120 µM | NCCOc1ccc(Cl)c(Nc2ccccc2C(=O)O)c1Cl [AK3-296] | 
57 |  | 1.2 µM | Cc1ccccc1COc1ccc(Cl)c(Nc2ccccc2C(=O)O)c1Cl [EEGI-055] | 
